Patent US20240158446A1, “CYCLIC COMPOUND HAVING SELECTIVE INHIBITORY ACTION ON KRAS OVER HRAS AND NRAS” (CHUGAI SEIYAKU KABUSHIKI KAISHA, priority 2021, published 2024)
pIC50, pKd: −log10 of the molar value. Blank lines part the entries; values can stand above or below the compound they belong to.

Experiments:
[1] = test system: human lung cancer strain NCI-H441;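 also: cell proliferation inhibition after four days measured by CellTiter-Glo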
[2] = target: GDP-bound HRAS wild-type protein (Homo sapiens, UniProt P01112); experiment: Binding to HRAS by surface plasmon resonance (SPR), Single Cycle Kinetics; conditions: SPR; GDP-bound HRAS wild-type protein vs GDP-bound KRAS wild-type protein; KD ratio class
[3] = target: GDP-bound KRAS wild-type protein (Homo sapiens, UniProt P01116); experiment: Binding to KRAS by surface plasmon resonance (SPR), Single Cycle Kinetics; conditions: SPR, Single Cycle Kinetics, 1:1 binding model; GDP-bound KRAS wild-type protein; read-out: KRAS KD
[4] = target: GDP-bound NRAS wild-type protein (Homo sapiens, UniProt P01111); experiment: Binding to NRAS by surface plasmon resonance (SPR), Single Cycle Kinetics; conditions: SPR; GDP-bound NRAS wild-type protein vs GDP-bound KRAS wild-type protein; KD ratio class
Chain of GDP-bound NRAS wild-type protein (P01111 whole entry): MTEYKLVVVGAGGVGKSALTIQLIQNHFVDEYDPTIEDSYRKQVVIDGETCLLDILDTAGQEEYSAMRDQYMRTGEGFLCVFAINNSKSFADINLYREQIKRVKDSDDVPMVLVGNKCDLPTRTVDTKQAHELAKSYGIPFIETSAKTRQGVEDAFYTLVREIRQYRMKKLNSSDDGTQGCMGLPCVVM

Chain of GDP-bound HRAS wild-type protein (P01112 whole entry): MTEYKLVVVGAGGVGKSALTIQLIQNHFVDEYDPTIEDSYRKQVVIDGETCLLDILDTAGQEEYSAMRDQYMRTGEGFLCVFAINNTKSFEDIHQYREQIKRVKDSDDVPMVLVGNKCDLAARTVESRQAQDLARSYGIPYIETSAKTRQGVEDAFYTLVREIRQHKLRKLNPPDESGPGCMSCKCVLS
Chain of GDP-bound KRAS wild-type protein (P01116 whole entry): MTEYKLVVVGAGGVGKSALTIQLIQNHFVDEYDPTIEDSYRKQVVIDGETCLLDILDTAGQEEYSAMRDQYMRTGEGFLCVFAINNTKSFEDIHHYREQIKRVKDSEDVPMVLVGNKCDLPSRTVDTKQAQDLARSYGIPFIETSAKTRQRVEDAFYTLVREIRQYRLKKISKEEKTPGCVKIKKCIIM

Compound: CCO[C@@H]1C[C@H]2C(=O)NC3(CCC3)C(=O)N(C)[C@@H](C3CCCC3)C(=O)N(C)[C@H](C(=O)N(C)C)CC(=O)N(C)[C@@H](CC(C)C)C(=O)N[C@@H]([C@@H](C)CC)C(=O)N(C)CC(=O)N(C)[C@H]3C/C=C\CCN(C3=O)[C@@H](Cc3ccc(C(F)(F)F)cc3)C(=O)N(C)CC(=O)N[C@@H](CCc3ccc(Cl)c(Cl)c3)C(=O)N2C1 [PP1251]
pIC50 [1]: 7.99
HRAS/KRAS (ratio of KD value for HRAS to KD value for KRAS) [2]: A (a compound having 10 or more and less than 20 is denoted as A)
pKd [3]: 9.74
NRAS/KRAS (ratio of KD value for NRAS to KD value for KRAS) [4]: AA (a compound having 20 or more is denoted as AA)

Compound: CCO[C@@H]1C[C@H]2C(=O)NC3(CCC3)C(=O)N(C)[C@@H](C3CCCC3)C(=O)N(C)[C@H](C(=O)N(C)C)CC(=O)N(C)[C@@H](CC)C(=O)N[C@@H]([C@@H](C)CC)C(=O)N(C)CC(=O)N(C)[C@H]3C/C=C\CCN(C3=O)[C@@H](Cc3ccc(C(F)(F)F)cc3)C(=O)N(C)CC(=O)N[C@@H](CCc3ccc4sccc4c3)C(=O)N2C1 [PP1255]
pIC50 [1]: 6.81
HRAS/KRAS (ratio of KD value for HRAS to KD value for KRAS) [2]: A (a compound having 10 or more and less than 20 is denoted as A)
pKd [3]: 9.41
NRAS/KRAS (ratio of KD value for NRAS to KD value for KRAS) [4]: A (a compound having 10 or more and less than 20 is denoted as A)

Compound: CCC[C@H]1C(=O)N[C@@H]([C@@H](C)CC)C(=O)N(C)CC(=O)N(C)[C@H]2C/C=C\CCN(C2=O)[C@@H](Cc2ccc(C(F)(F)F)cc2)C(=O)N(C)CC(=O)N[C@@H](CCc2ccc3sccc3c2)C(=O)N2C[C@H](OCC)C[C@H]2C(=O)NC2(CCC2)C(=O)N(C)[C@@H](C2CCCC2)C(=O)N(C)[C@H](C(=O)N(C)C)CC(=O)N1C [PP1256]
pIC50 [1]: 7.16
HRAS/KRAS (ratio of KD value for HRAS to KD value for KRAS) [2]: A (a compound having 10 or more and less than 20 is denoted as A)
pKd [3]: 9.44
NRAS/KRAS (ratio of KD value for NRAS to KD value for KRAS) [4]: A (a compound having 10 or more and less than 20 is denoted as A)

Compound: CCO[C@@H]1C[C@H]2C(=O)NC3(CCC3)C(=O)N(C)[C@@H](C3CCCC3)C(=O)N(C)[C@H](C(=O)N(C)C)CC(=O)N(C)[C@@H](CC3CCCC3)C(=O)N[C@@H]([C@@H](C)CC)C(=O)N(C)CC(=O)N(C)[C@H]3C/C=C\CCN(C3=O)[C@@H](Cc3ccc(C(F)(F)F)cc3)C(=O)N(C)CC(=O)N[C@@H](CCc3ccc4sccc4c3)C(=O)N2C1 [PP1261]
pIC50 [1]: 7.11
HRAS/KRAS (ratio of KD value for HRAS to KD value for KRAS) [2]: A (a compound having 10 or more and less than 20 is denoted as A)
pKd [3]: 9.36
NRAS/KRAS (ratio of KD value for NRAS to KD value for KRAS) [4]: A (a compound having 10 or more and less than 20 is denoted as A)

Compound: CCO[C@@H]1C[C@H]2C(=O)NC3(CCC3)C(=O)N(C)[C@@H](C3CCCC3)C(=O)N(C)[C@H](C(=O)N(C)C)CC(=O)N(C)[C@@H](CC(C)C)C(=O)N[C@@H]([C@@H](C)CC)C(=O)N(C)CC(=O)N(C)[C@H]3C/C=C\CCN(C3=O)[C@@H](Cc3ccc(C(F)(F)F)cc3)C(=O)N(C)CC(=O)N[C@@H](CCc3cc(F)c(Cl)c(F)c3)C(=O)N2C1 [PP1263]
pIC50 [1]: 7.72
HRAS/KRAS (ratio of KD value for HRAS to KD value for KRAS) [2]: A (a compound having 10 or more and less than 20 is denoted as A)
pKd [3]: 9.64
NRAS/KRAS (ratio of KD value for NRAS to KD value for KRAS) [4]: A (a compound having 10 or more and less than 20 is denoted as A)

Compound: CCO[C@@H]1C[C@H]2C(=O)NC3(CCC3)C(=O)N(C)[C@@H](C3CCCC3)C(=O)N(C)[C@H](C(=O)N(C)C)CC(=O)N(C)[C@@H](CC3CCCC3)C(=O)N[C@@H]([C@@H](C)CC)C(=O)N(C)CC(=O)N(C)[C@H]3C/C=C\CCN(C3=O)[C@@H](Cc3ccc(C(F)(F)F)cc3)C(=O)N(C)CC(=O)N[C@@H](CCc3cc(F)c(Cl)c(F)c3)C(=O)N2C1 [PP1264]
pIC50 [1]: 7.80
HRAS/KRAS (ratio of KD value for HRAS to KD value for KRAS) [2]: B (a compound having 3 or more and less than 10 is denoted as B)
pKd [3]: 9.43
NRAS/KRAS (ratio of KD value for NRAS to KD value for KRAS) [4]: A (a compound having 10 or more and less than 20 is denoted as A)

Compound: CCO[C@@H]1C[C@H]2C(=O)NC3(CCC3)C(=O)N(C)[C@@H](C3CCCC3)C(=O)N(C)[C@H](C(=O)N(C)C)CC(=O)N(C)[C@@H](CC)C(=O)N[C@@H]([C@@H](C)CC)C(=O)N(C)CC(=O)N(C)[C@H]3C/C=C\CCN(C3=O)[C@@H](Cc3ccc(C(F)(F)F)cc3)C(=O)N(C)CC(=O)N[C@@H](CCc3ccc(C(F)(F)F)c(C)c3)C(=O)N2C1 [PP1265]
pIC50 [1]: 7.85
HRAS/KRAS (ratio of KD value for HRAS to KD value for KRAS) [2]: B (a compound having 3 or more and less than 10 is denoted as B)
pKd [3]: 9.77
NRAS/KRAS (ratio of KD value for NRAS to KD value for KRAS) [4]: A (a compound having 10 or more and less than 20 is denoted as A)

The remaining compounds from weak to strong by pIC50 [1], led by results:

pIC50 [1]: 7.21
pKd [3]: 9.31
Compound: CCCCCC[C@H]1C(=O)N[C@@H]([C@@H](C)CC)C(=O)N(C)CC(=O)N(C)[C@H]2C/C=C\CCN(C2=O)[C@@H](Cc2ccc(C(F)(F)F)cc2)C(=O)N(C)CC(=O)N[C@@H](CCc2ccc3sccc3c2)C(=O)N2C[C@H](OCC)C[C@H]2C(=O)NC2(CCC2)C(=O)N(C)[C@@H](C2CCCC2)C(=O)N(C)[C@H](C(=O)N(C)C)CC(=O)N1C [PP1259]
HRAS/KRAS (ratio of KD value for HRAS to KD value for KRAS) [2]: A (a compound having 10 or more and less than 20 is denoted as A)
NRAS/KRAS (ratio of KD value for NRAS to KD value for KRAS) [4]: A (a compound having 10 or more and less than 20 is denoted as A)

pIC50 [1]: 7.22
pKd [3]: 9.43
Compound: CCO[C@@H]1C[C@H]2C(=O)NC3(CCC3)C(=O)N(C)[C@@H](C3CCCC3)C(=O)N(C)[C@H](C(=O)N(C)C)CC(=O)N(C)[C@@H](CC3CC3)C(=O)N[C@@H]([C@@H](C)CC)C(=O)N(C)CC(=O)N(C)[C@H]3C/C=C\CCN(C3=O)[C@@H](Cc3ccc(C(F)(F)F)cc3)C(=O)N(C)CC(=O)N[C@@H](CCc3ccc4sccc4c3)C(=O)N2C1 [PP1260]
HRAS/KRAS (ratio of KD value for HRAS to KD value for KRAS) [2]: A (a compound having 10 or more and less than 20 is denoted as A)
NRAS/KRAS (ratio of KD value for NRAS to KD value for KRAS) [4]: A (a compound having 10 or more and less than 20 is denoted as A)

pIC50 [1]: 7.25
pKd [3]: 9.62
Compound: CCO[C@@H]1C[C@H]2C(=O)NC3(CCC3)C(=O)N(C)[C@@H](C3CCCC3)C(=O)N(C)[C@H](C(=O)N(C)C)CC(=O)N(C)[C@@H](CC)C(=O)N[C@@H]([C@@H](C)CC)C(=O)N(C)CC(=O)N(C)[C@H]3C/C=C\CCN(C3=O)[C@@H](Cc3ccc(C(F)(F)F)cc3)C(=O)N(C)CC(=O)N[C@@H](CCc3cc(F)c(Cl)c(F)c3)C(=O)N2C1 [PP1262]
HRAS/KRAS (ratio of KD value for HRAS to KD value for KRAS) [2]: B (a compound having 3 or more and less than 10 is denoted as B)
NRAS/KRAS (ratio of KD value for NRAS to KD value for KRAS) [4]: A (a compound having 10 or more and less than 20 is denoted as A)

pIC50 [1]: 7.27
pKd [3]: 9.48
Compound: CCO[C@@H]1C[C@H]2C(=O)NC3(CCC3)C(=O)N(C)[C@@H](C3CCCC3)C(=O)N(C)[C@H](C(=O)N(C)C)CC(=O)N(C)[C@@H](CC(C)C)C(=O)N[C@@H]([C@@H](C)CC)C(=O)N(C)CC(=O)N(C)[C@H]3C/C=C\CCN(C3=O)[C@@H](Cc3ccc(C(F)(F)F)cc3)C(=O)N(C)CC(=O)N[C@@H](CCc3ccc4sccc4c3)C(=O)N2C1 [PP1257]
HRAS/KRAS (ratio of KD value for HRAS to KD value for KRAS) [2]: A (a compound having 10 or more and less than 20 is denoted as A)
NRAS/KRAS (ratio of KD value for NRAS to KD value for KRAS) [4]: A (a compound having 10 or more and less than 20 is denoted as A)

pIC50 [1]: 7.29
pKd [3]: 9.52
Compound: CCCCCC[C@H]1C(=O)N[C@@H]([C@@H](C)CC)C(=O)N(C)CC(=O)N(C)[C@H]2C/C=C\CCN(C2=O)[C@@H](Cc2ccc(C(F)(F)F)cc2)C(=O)N(C)CC(=O)N[C@@H](CCc2ccc(Cl)c(Cl)c2)C(=O)N2C[C@H](OCC)C[C@H]2C(=O)NC2(CCC2)C(=O)N(C)[C@@H](C2CCCC2)C(=O)N(C)[C@H](C(=O)N(C)C)CC(=O)N1C [PP1252]
HRAS/KRAS (ratio of KD value for HRAS to KD value for KRAS) [2]: A (a compound having 10 or more and less than 20 is denoted as A)
NRAS/KRAS (ratio of KD value for NRAS to KD value for KRAS) [4]: AA (a compound having 20 or more is denoted as AA)

pIC50 [1]: 7.55
pKd [3]: 9.70
Compound: CCO[C@@H]1C[C@H]2C(=O)NC3(CCC3)C(=O)N(C)[C@@H](C3CCCC3)C(=O)N(C)[C@H](C(=O)N(C)C)CC(=O)N(C)[C@@H](CC3CCCC3)C(=O)N[C@@H]([C@@H](C)CC)C(=O)N(C)CC(=O)N(C)[C@H]3C/C=C\CCN(C3=O)[C@@H](Cc3ccc(C(F)(F)F)cc3)C(=O)N(C)CC(=O)N[C@@H](CCc3ccc(Cl)c(Cl)c3)C(=O)N2C1 [PP1254]
HRAS/KRAS (ratio of KD value for HRAS to KD value for KRAS) [2]: A (a compound having 10 or more and less than 20 is denoted as A)
NRAS/KRAS (ratio of KD value for NRAS to KD value for KRAS) [4]: AA (a compound having 20 or more is denoted as AA)

pIC50 [1]: 7.65
pKd [3]: 9.70
Compound: CCO[C@@H]1C[C@H]2C(=O)NC3(CCC3)C(=O)N(C)[C@@H](C3CCCC3)C(=O)N(C)[C@H](C(=O)N(C)C)CC(=O)N(C)[C@@H](CC3CC3)C(=O)N[C@@H]([C@@H](C)CC)C(=O)N(C)CC(=O)N(C)[C@H]3C/C=C\CCN(C3=O)[C@@H](Cc3ccc(C(F)(F)F)cc3)C(=O)N(C)CC(=O)N[C@@H](CCc3ccc(Cl)c(Cl)c3)C(=O)N2C1 [PP1253, (2S,8S,12R,14S,20S,23S,27S,30S,36S,38Z)-20-cyclopentyl-27-(cyclopropylmethyl)-8-[2-(3,4-dichlorophenyl)ethyl]-12-ethoxy-N,N,4,19,22,26,32,35-octamethyl-30-[(1S)-1-methylpropyl]-3,6,9,15,18,21,25,28,31,34,42-undecaoxo-2-[[4-(trifluoromethyl)phenyl]methyl]spiro[1,4,7,10,16,19,22,26,29,32,35-undecazatricyclo[34.5.1.0^10,14]dotetracont-38-ene-17,1′-cyclobutane]-23-carboxamide]
HRAS/KRAS (ratio of KD value for HRAS to KD value for KRAS) [2]: A (a compound having 10 or more and less than 20 is denoted as A)
NRAS/KRAS (ratio of KD value for NRAS to KD value for KRAS) [4]: A (a compound having 10 or more and less than 20 is denoted as A)
